Test results published in PMC3844920 (British Journal of Cancer, 2013).

Assays:
Pyk2 = Pyk2 (Homo sapiens, UniProt Q14289); test: in vitro kinase assay; assay type: biochemical; conditions: read-out: Pyk2 inhibition 1 μM ^a
[1] = molecular target: FAK (focal adhesion kinase) (Homo sapiens, UniProt Q05397); test: in vitro kinase assay, Kinase-Glo luminescence; assay type: biochemical; conditions: read-out: FAK inhibition 1 μM ^a
Chain of FAK (focal adhesion kinase) (Q05397 2-1052): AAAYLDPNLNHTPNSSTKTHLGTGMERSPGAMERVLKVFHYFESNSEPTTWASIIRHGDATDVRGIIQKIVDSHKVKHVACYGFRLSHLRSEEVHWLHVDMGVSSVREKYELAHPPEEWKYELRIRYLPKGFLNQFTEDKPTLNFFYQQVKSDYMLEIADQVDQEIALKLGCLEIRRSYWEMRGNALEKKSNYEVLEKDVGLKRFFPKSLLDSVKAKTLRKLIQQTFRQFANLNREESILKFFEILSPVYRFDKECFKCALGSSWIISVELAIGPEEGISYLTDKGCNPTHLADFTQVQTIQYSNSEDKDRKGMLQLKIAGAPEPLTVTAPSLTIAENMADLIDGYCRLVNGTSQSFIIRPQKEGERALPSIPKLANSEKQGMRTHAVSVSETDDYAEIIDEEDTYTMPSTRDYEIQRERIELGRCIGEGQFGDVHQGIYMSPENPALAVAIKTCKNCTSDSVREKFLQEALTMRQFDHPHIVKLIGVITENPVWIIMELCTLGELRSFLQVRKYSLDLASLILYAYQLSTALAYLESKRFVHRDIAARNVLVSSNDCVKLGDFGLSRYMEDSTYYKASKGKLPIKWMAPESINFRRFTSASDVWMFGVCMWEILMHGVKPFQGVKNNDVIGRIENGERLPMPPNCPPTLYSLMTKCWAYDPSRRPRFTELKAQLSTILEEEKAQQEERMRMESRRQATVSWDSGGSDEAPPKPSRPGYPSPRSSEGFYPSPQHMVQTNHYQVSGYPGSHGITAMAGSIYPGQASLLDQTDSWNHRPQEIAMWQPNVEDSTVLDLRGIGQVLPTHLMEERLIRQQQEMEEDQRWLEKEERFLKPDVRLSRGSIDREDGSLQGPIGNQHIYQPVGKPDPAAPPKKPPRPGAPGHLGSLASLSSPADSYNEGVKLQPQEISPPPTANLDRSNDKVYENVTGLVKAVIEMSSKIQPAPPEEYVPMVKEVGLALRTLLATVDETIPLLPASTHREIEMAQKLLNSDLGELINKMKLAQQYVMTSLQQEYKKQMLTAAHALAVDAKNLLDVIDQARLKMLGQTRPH

Chain of Pyk2 (Q14289 whole entry): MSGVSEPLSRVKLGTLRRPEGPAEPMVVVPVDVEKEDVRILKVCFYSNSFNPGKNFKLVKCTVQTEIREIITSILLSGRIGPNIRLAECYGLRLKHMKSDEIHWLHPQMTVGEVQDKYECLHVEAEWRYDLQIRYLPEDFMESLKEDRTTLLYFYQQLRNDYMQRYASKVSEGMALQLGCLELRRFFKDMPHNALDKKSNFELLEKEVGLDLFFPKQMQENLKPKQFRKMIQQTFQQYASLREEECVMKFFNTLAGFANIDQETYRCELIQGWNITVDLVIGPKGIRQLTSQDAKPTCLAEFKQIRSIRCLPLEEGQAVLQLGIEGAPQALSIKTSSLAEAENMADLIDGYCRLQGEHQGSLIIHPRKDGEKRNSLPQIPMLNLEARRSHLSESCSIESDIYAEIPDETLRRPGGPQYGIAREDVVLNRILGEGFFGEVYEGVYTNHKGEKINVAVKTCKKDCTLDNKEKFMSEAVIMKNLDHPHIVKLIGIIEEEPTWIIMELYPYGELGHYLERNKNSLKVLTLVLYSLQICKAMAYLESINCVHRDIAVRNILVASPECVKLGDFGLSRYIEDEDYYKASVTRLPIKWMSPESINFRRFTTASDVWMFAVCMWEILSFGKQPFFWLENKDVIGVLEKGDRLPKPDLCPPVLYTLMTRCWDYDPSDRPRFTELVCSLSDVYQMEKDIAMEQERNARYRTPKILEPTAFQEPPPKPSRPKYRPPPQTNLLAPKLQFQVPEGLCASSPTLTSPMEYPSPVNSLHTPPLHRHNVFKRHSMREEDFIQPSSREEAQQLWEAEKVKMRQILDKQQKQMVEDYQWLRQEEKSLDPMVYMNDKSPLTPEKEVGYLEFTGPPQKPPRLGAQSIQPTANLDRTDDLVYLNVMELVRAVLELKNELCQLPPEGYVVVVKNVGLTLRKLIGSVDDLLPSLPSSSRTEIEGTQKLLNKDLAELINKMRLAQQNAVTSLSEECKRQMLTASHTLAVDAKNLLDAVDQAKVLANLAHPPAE

With `c1nc2nc(Nc3ccc(N4CCOCC4)cc3)nc(NC3CCCCC3)c2[nH]1` [reversine] the inhibition at 1 µM (Pyk2) was 82% and the inhibition at 1 µM [1] was 70%.
